Test results: publication PMC9121578, “Celastrol mitigates inflammation in sepsis by inhibiting the PKM2-dependent Warburg effect” (Military Medical Research, 2022)

How the values were obtained:
Type in all cases: binding
[1] = molecular target: T1, HMGB1 (high mobility group box 1) (Homo sapiens, UniProt P09429); assay: surface plasmon resonance, CM5 chip, steady-state […]
T1 construct: recombinant full length, pET-24d, E. coli BL21, Ni-NTA purified; a recombinant human HMGB1 was also bought from Abcam
T1 sequence (P09429 1-215): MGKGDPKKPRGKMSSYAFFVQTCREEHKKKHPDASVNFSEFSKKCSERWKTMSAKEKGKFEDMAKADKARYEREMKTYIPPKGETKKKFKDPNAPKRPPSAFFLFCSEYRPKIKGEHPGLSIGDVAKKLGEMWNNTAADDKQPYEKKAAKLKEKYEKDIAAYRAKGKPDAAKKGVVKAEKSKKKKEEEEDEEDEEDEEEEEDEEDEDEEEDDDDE

HMGB1 B box = molecular target: T2, HMGB1 B box (Homo sapiens, UniProt P09429); assay: UV-visible absorption; competition with Cel-P labelling; conditions: 100 μmol/L Cel; covalent
T2 construct: B box domain (contains Cys106)
T2 sequence (P09429 95-163 limits assumed): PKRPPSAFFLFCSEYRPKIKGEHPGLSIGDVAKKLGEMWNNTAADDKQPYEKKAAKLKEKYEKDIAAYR

[2] = molecular target: T3, LDHA (lactate dehydrogenase A) (Homo sapiens, UniProt P00338); assay: surface plasmon resonance, CM5 chip, steady-state […]
T3 construct: recombinant human LDHA obtained from Abcam

[3] = molecular target: T4, PKM2 (pyruvate kinase M2) (Homo sapiens, UniProt P14618); assay: as above
T4 construct: gene PKM; recombinant, pET28a, E. coli BL21, Ni-NTA purified; full length implied

[4] = molecular target: T4, PKM2 (pyruvate kinase M2); assay: probe labelling, click chemistry, in-gel fluorescence; conditions: room temperature; PBS; covalent
[5] = molecular target: T1, HMGB1 (high mobility group box 1); assay: as above; conditions: room temperature; PBS; covalent

T4 sequence (P14618 2-531): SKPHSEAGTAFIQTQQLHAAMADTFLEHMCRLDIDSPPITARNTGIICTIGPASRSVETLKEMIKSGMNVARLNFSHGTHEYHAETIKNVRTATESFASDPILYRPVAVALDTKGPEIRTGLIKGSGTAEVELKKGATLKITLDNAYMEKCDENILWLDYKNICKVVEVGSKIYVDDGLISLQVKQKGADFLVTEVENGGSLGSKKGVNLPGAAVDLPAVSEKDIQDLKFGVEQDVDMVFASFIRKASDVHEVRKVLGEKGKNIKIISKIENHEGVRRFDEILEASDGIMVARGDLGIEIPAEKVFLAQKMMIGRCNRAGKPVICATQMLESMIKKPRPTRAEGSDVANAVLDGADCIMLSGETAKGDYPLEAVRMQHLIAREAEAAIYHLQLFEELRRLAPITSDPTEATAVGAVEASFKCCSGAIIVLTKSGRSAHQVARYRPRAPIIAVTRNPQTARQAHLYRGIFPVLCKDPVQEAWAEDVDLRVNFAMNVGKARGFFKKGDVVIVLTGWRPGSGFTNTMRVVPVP

| Structure (SMILES) | Kd [1] | UV-visible absorption; competition with Cel-P labelling (HMGB1 B box) | Kd [2] | Kd [3] | probe labelling, click chemistry, in-gel fluorescence [4] | probe labelling, click chemistry, in-gel fluorescence [5] |
| --- | --- | --- | --- | --- | --- | --- |
| CC1=C(O)C(=O)C=C2C1=CC=C1[C@@]2(C)CC[C@@]2(C)[C@@H]3C[C@](C)(C(=O)O)CC[C@]3(C)CC[C@]12C [Cel, Celastrol] | 4.44 µM | UV–visible absorption by Cel decreased upon mixing with the B box domain | 562 µM | 635 µM |  |  |
| C#CCNC(=O)[C@]1(C)CC[C@]2(C)CC[C@]3(C)C4=CC=C5C(=CC(=O)C(O)=C5C)[C@]4(C)CC[C@@]3(C)[C@@H]2C1 [Cel-P, celastrol-probe] |  |  |  |  | These proteins were labeled with Cel-P in a dose-dependent manner | Cel-P labeled recombinant human HMGB1 (Fig. 6c) |
